The source of these data is patent US6326380A, “Thrombin receptor antagonists” (Schering Corporation, priority 2000, dated 2001).

Like-named read-outs stand apart in the source and are kept apart here.

One assay deals with T1, Thrombin receptor (Homo sapiens, UniProt P25116).
T1 construct: Platelet membranes were prepared using a modification of the method of Natarajan et al; tissue North Jersey Blood Center (East Orange, N.J.); host or cells: platelets (platelet concentrates), membranes
T1 sequence (P25116 22-425): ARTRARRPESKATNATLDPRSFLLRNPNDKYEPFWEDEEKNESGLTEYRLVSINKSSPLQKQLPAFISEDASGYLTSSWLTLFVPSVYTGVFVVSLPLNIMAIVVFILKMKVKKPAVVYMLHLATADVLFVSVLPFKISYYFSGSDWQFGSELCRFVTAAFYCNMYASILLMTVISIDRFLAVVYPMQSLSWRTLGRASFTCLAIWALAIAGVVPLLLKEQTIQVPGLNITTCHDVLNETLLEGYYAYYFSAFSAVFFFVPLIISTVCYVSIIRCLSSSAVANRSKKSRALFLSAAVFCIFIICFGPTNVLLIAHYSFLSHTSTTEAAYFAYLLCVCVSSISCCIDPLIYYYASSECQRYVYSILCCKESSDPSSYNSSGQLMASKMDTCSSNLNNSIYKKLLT
Kind of assay: In vitro Thrombin Receptor Antagonist Assay ([3H]haTRAP radioligand binding, platelet membranes). The note with it: [3H]haTRAP 10 nM, read-out: IC50 (concentration at which a 50% inhibition of thrombin receptor was observed). Here is the method: In Vitro Testing Procedure for Thrombin Receptor Antagonists:
Preparation of [^3 H]haTRAP
The vessel was attached to the tritium line, frozen in liquid nitrogen and evacuated. […] At the completion of the reaction, the excess tritium was removed and the reacted peptide solution was diluted with DMF (0.5 ml) and filtered to remove the catalyst. The collected DMF solution of the crude peptide was diluted with water and freeze dried to remove the labile tritium. The solid peptide was redissolved in water and the freeze drying process repeated. The tritiated peptide ([^3 H]haTRAP) was dissolved in 0.5 ml of 0.1% aqueous TFA and purified by HPLC using the following conditions: column, Vydac C18, 25 cm×9.4 mm I.D.; mobile phase, (A) 0.1% TFA in water, (B) 0.1% TFA in CH3 CN; gradient, (A/B) from 100/0 to 40/60 over 30 min; flow rate, 5 ml/min; detection, UV at 215 nm.
Preparation of platelet membranes
All steps were carried out at 4° C. under approved biohazard safety conditions. Platelets were centrifuged at 100×g for 20 minutes at 4° C. to remove red cells. The supernatants were decanted and centrifuged at 3000×g for 15 minutes to pellet platelets. Platelets were resuspended in 10 mM Tris-HCl, pH 7.5,150 mM NaCl, 5 mM EDTA, to a total volume of 200 ml and centrifuged at 4400×g for 10 minutes. This step was repeated two additional times. Platelets were resuspended in 5 mM Tris-HCl, pH 7.5, 5 mM EDTA to a final volume of approximately 30 ml and were homogenized with 20 strokes in a Dounce homogenizer. Membranes were pelleted at 41,000×g, resuspended in 40-50 ml 20 mM Tris-HCl, pH 7.5,1 mM EDTA, 0.1 mM dithiothreitol, and 10 ml aliquots were frozen in liquid N2 and stored at -80° C. To complete membrane preparation, aliquots were thawed, pooled, and homogenized with 5 strokes of a Dounce homogenizer. Membranes were pelleted and washed 3 times in 10 mM triethanolamine-HCl, pH 7.4, 5 mM EDTA, and resuspended in 20-25 ml 50 mM Tris-HCl, pH 7.5, 10 mM MgCl2, 1 mM EGTA, and 1% DMSO. Aliquots of membranes were frozen in liquid N2 and stored at -80° C.
High Throughput Thrombin Receptor Radioligand Binding Assay
Stock solutions (10 mM in 100% DMSO) of test compounds were further diluted in 100% DMSO. Unless otherwise indicated, 10 μl of diluted compound solutions and 90 μl of radioligand (a final concentration of 10 nM in 5% DMSO) were added to each well, and the reaction was started by the addition of 100 μl of membranes (40 μg protein/well). […] Compounds were tested at three concentrations (0.1, 1 and 10 μM). The plates were covered and vortex-mixed gently on a Lab-Line Titer Plate Shaker for 1 hour at room temperature. Packard UniFilter GF/C filter plates were soaked for at least 1 hour in 0.1% polyethyleneimine. The incubated membranes were harvested using a Packard FilterMate Universal Harvester and were rapidly washed four times with 300 μl ice cold 50 mM Tris-HCl, pH 7.5, 10 mM MgCl2, 1 mM EGTA. MicroScint 20 scintillation cocktail (25 μl) was added to each well, and the plates were counted in a Packard TopCount Microplate Scintillation Counter. The specific binding was defined as the total binding minus the nonspecific binding observed in the presence of excess (50 μM) unlabeled haTRAP. The % inhibition by a compound of [^3 H]haTRAP binding to thrombin receptors was calculated from the following relationship: […]
A(pF-F)R(ChA)(hR)Y--NH2 and A(pF-F)R(ChA)(hR)(I2 -Y)--NH2, were custom synthesized by AnaSpec Inc. (San Jose, Calif.). […] The gas was subsequently loaded and stored on an IN/US Systems Inc. Trisorber.

The test system of assay [1] is platelet aggregation (platelets, haTRAP or thrombin). In words: In vitro Platelet Aggregation Inhibition (PAI). It is filed as cell-based. The following applies: Homo sapiens, read-out: In vitro PAI IC50. Here is the method: In vitro Platelet Aggregation Procedure:
Blood was obtained from healthy human subjects who were aspirin free for at least 7 days by venipuncture using ACD as anticoagulant. Platelet rich plasma was prepared by centrifugation at 100×g for 15 minutes at 15 deg C. Platelets were pelleted at 3000×g and washed twice in buffered saline containing 1 mM EGTA and 20 μg/ml apyrase to inhibit aggregation. Aggregation was performed at room temperature in buffered saline supplemented with 0.2 mg/ml human fibrinogen. Test compound and platelets were preincubated in 96-well flat-bottom plates for 60 minutes. Aggregation was initiated by adding 0.3 μM haTRAP or 0.1 U/ml thrombin and rapidly vortexing the mixture using a Lab Line Titer Plate Shaker (speed 7). Percent aggregation was monitored as increasing light transmittance at 405 nm in a Spectromax Plate Reader.

Assay [2] relates to platelet aggregation (Whole Blood, haTRAP). Kind of assay: Ex-vivo Platelet Aggregation In Cynomolgus Whole Blood. The arrangement: species or system cynomolgus monkey. Here is the method: Protocol For Ex-Vivo Platelet Aggregation In Cynomolgus Whole Blood Drug administration and blood collection:
Conscious chaired cynomolgus monkeys are allowed to equilibrate for 30 min. A needle catheter is inserted into a brachial vein for infusion of test drugs. Another needle catheter is inserted into the other brachial or saphenous vein and used for blood sampling. In those experiments where the compound is administered orally only one catheter is used. A baseline blood sample (1-2 ml) is collected in vacutainer tubes containing a thrombin inhibitor CVS 2139 (100 μg/0.1 ml saline) as an anticoaculant. The drug is then infused intravenously over a period of 30 min. Blood samples (1 ml) are collected at 5, 10, 20, 30 min during and 30, 60, 90 min after termination of the drug infusion. In PO experiments the animals are dosed with the drug using a gavage cannula. Blood samples are collected at 0, 30, 60, 90, 120, 180, 240, 300, 360 min after dosing. […]
A 0.5 ml blood sample is added to 0.5 ml of saline and warmed to 37° C. in a Chronolog whole blood aggregometer. […] The agonist (haTRAP) is added by an adjustable volume pipette (5-25 μl) and the aggregation curve is recorded for 10 minutes. Maximum aggregation in 6 minutes following agonist is the value recorded.

Setting [3] is: 0.3 μM haTRAP or 0.1 U/ml thrombin, 60 min preincubation.

In the case of `Cc1cc(C)nc(/C=C/[C@@H]2[C@H]3CCCC[C@@H]3C[C@@H]3C(=O)O[C@@H](C)[C@H]23)c1` [Example 1A], on Thrombin receptor, the IC50 was determined as 1600 nM.
As for `C[C@H]1OC(=O)[C@@H]2C[C@@H]3CCCC[C@H]3[C@H](/C=C/c3ccc4cc(O)ccc4n3)[C@H]12` [Example 1BN], the IC50 at Thrombin receptor is 6 nM; in assay [1] (setting [3]), 100 to 300 nM.
As for `Cc1ccccc1-c1ccc(/C=C/[C@H]2[C@@H]3CCCC[C@H]3C[C@H]3C(=O)O[C@H](C)[C@@H]23)nc1` [Example 1DK], at Thrombin receptor, the IC50 is 14 nM.
Take `C[C@H]1OC(=O)[C@@H]2C[C@@H]3CCCC[C@H]3[C@H](/C=C/c3ccc(-c4cccc5c4OCO5)cn3)[C@H]12` [Example 1DR]: the IC50 in assay [1] (setting [3]) came to 100 nM.
Take `C[C@H]1OC(=O)[C@@H]2C[C@@H]3CCCC[C@H]3[C@H](/C=C/c3ccc(-c4cc(C(F)(F)F)cc(C(F)(F)F)c4)cn3)[C@H]12` [Example 1ES]: the IC50 on Thrombin receptor came out at 4 nM.
The same measure, in the same setting: as for `Cc1cccc(/C=C/[C@H]2[C@H]3[C@H](C)OC(=O)[C@H]3C=C3CCCC[C@@H]32)n1` [Example 2E], the figure is 350 nM; as for `O=C1OCC2C1Cc1ccccc1C2C=Cc1ccc(-c2cccc(C(F)(F)F)c2)cn1` (stereo not shown) [Example 3K], 10 nM.
For `C[C@H]1OC(=O)[C@@H]2C[C@@H]3CCCC[C@H]3[C@H](/C=C/c3ccc(-c4cccc(C(F)(F)F)c4)cn3)[C@H]12` [Example 4, (+)-(3R,3aS,4S,4aR,8aS,9aR)-Decahydro-4-[(E)-2-[5-[3-(trifluoromethyl)phenyl]-2-pyridinyl]ethenyl]-3-Methylnaphtho-[2,3-c]furan-1(3H)-one], the “Ex-vivo C. Monkey Whole Blood PAI” value in assay [2] (3 mpk, oral in betahydroxypropylcyclodextrin as cosolvent) is 100%. Moreover, in assay [1], the IC50 turned out to be 67 nM.
In the case of `CNC(=O)C1Cc2ccccc2C(C=Cc2ccc(-c3cccc(C(F)(F)F)c3)cn2)C1CO` (stereo not shown) [Example 7], the IC50 on Thrombin receptor turned out to be 1140 nM.
`CCc1cccc(/C=C/[C@H]2[C@@H]3CCCC[C@H]3C[C@H]3C(=O)O[C@H](C)[C@@H]23)n1` [Example 8, (+)-(3R,3aS,4S,4aR,8aS,9aR)-Decahydro-4-[(E)-2-(6-ethyl-2-pyridinyl)ethenyl]-3-methylnaphtho[2,3-c]furan-1(3H)-one]: the “Ex-vivo C. Monkey Whole Blood PAI” value in assay [2] (10 mpk, i.v. infusion over 30 min. in 5% dextrose) is reported as 100%. Also, the IC50 in assay [1] is 300 nM.
